This is an account of results in ChEMBL document CHEMBL1131422, “N-(2-Benzoylphenyl)-L-tyrosine PPARgamma agonists. 1. Discovery of a novel series of potent antihyperglycemic and antihyperlipidemic agents” (J Med Chem, 1998).

Experiment [1] is filed under the species Rattus norvegicus. Kind of experiment: The compound was tested for Antihyperlipidemic activity in Zucker Diabetic fatty rats, activity is expressed as percent reduction of NEFAs. The format is functional.
Experiment [2] concerns Rattus norvegicus. Kind of experiment: The compound was tested in vivo for Antihyperglycemic activity in Zucker Diabetic fatty rats, activity is expressed as percent reduction of HbA1C. The experiment is classed as functional.
Experiment [3] deals with Rattus norvegicus. Nature of the experiment: The compound was tested in vivo for Antihyperglycemic activity in Zucker Diabetic fatty rats, activity is expressed as percent reduction of plasma glucose. The experiment is classed as functional.
For experiment [4], the species on record is Rattus norvegicus. Nature of the experiment: The compound was tested for Antihyperlipidemic activity in Zucker Diabetic fatty rats, activity is expressed as percent reduction of Triglycerides. The format is functional.
For experiment [5], the species on record is Mus musculus. Nature of the experiment: Compound was tested for Antihyperlipidemic activity, activity is expressed as percent reduction of NEFAs. The experiment is classed as functional.
For experiment [6], the target named is T1, Peroxisome proliferator-activated receptor gamma (Homo sapiens, UniProt P37231).
T1 sequence (P37231 whole entry): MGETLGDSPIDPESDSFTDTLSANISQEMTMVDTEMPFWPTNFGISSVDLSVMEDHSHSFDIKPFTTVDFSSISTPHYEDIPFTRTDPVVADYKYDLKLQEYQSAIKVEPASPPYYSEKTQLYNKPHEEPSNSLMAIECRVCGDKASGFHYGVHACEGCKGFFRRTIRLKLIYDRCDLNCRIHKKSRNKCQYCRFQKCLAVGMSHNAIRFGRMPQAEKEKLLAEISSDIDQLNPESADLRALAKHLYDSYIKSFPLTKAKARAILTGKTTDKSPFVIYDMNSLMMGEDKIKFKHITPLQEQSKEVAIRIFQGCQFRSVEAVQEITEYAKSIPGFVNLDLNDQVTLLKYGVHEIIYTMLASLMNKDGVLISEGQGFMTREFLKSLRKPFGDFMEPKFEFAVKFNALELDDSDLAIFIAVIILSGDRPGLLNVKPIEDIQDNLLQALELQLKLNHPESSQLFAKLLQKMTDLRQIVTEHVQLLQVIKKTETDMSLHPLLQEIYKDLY
Description: In vitro binding to peroxisome proliferator activated receptor gamma (PPAR gamma) using [3H]-BRL 49653 as radioligand in scintillation proximity assay (SPA)

The target in experiment [7] is T1, Peroxisome proliferator-activated receptor gamma. To be noted: cv-1.
Description: (§1) Activation of peroxisome proliferator activated receptor gamma measured by induction of 50% of maximum alkaline phosphatase activity, transfection assay in CV-1 cells
For experiment [8], the species on record is Mus musculus. Nature of the experiment: Compound was tested for Antihyperlipidemic activity, activity is expressed as percent reduction of Triglycerides. The format is functional.
Experiment [9] has as its system Mus musculus. Nature of the experiment: Compound was tested in vivo for Antihyperglycemic activity in mice, activity is expressed as percent reduction of plasma glucose. The format is functional.
In experiment [10] the target is T2, Peroxisome proliferator-activated receptor delta (Homo sapiens) (UniProt Q03181).
T2 sequence (whole entry): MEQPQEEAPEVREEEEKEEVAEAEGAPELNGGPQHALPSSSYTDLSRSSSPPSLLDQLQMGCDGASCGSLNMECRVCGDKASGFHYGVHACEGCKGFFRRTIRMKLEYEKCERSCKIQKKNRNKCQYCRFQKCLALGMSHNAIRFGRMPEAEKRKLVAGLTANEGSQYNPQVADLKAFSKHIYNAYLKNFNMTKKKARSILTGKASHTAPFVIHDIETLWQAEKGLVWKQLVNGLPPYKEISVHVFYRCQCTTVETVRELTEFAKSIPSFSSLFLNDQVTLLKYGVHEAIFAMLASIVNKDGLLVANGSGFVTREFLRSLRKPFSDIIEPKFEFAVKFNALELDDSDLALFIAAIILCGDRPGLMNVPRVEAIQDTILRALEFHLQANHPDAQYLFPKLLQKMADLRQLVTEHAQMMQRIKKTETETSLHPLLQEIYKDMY
To be noted: CV-1; 10e-4 M.
Description: Compound was tested functionally in vitro for inducing 50% of the maximum alkaline phosphatase activity (Transactivation) against human Peroxisome proliferator activated receptor delta using transfection assay in CV-1 cells; IA = Inactive at 10e-4 M

The target in experiment [11] is T3, Peroxisome proliferator-activated receptor delta (Mus musculus) (UniProt P35396).
T3 sequence (whole entry): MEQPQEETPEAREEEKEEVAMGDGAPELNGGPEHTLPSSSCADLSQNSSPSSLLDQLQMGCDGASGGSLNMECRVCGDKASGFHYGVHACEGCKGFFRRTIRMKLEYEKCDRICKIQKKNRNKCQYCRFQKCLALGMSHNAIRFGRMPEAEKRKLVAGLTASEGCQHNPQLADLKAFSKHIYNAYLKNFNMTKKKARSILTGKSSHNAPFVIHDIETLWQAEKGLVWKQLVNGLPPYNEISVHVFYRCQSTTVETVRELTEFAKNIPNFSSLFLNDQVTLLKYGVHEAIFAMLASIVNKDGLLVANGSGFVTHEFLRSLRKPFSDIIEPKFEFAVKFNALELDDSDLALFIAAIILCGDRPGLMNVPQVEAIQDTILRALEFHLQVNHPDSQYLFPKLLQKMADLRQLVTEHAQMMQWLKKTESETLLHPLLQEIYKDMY
Nature of the experiment: Compound was tested functionally in vitro for inducing 50% of the maximum alkaline phosphatase activity (Transactivation) against murine Peroxisome proliferator activated receptor delta using transfection assay in CV-1 cells; IA = Inactive at 10e-4 M. The format is functional, cell-based.

Experiment [12] deals with T1, Peroxisome proliferator-activated receptor gamma. The source holds these as a separate data set.
Description: as §1
Experiment [13] concerns the target T4, Peroxisome proliferator-activated receptor alpha (Homo sapiens) (UniProt Q07869).
T4 sequence (whole entry): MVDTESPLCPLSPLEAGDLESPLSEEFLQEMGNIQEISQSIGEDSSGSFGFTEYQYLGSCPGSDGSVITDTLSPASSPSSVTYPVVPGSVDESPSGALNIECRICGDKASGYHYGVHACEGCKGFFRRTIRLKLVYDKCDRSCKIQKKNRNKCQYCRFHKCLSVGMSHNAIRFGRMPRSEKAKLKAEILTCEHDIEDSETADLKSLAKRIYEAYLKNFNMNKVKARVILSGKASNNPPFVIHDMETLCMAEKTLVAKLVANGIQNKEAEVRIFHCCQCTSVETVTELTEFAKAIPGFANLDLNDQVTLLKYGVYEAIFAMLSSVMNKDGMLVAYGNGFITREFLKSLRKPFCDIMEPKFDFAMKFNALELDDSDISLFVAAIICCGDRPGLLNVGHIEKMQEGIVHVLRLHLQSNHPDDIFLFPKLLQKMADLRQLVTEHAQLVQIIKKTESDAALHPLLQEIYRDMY
Nature of the experiment: The compound was tested in vitro for inhibiting the 50% binding of Peroxisome proliferator activated receptor alpha.

The target of experiment [14] is T5, Peroxisome proliferator-activated receptor gamma (Homo sapiens) (UniProt P37231).
T5 sequence (whole entry): T1 sequence (P37231 whole entry)
Description: Tested for its ability to bind to Peroxisome proliferator activated receptor gamma using [3H]-BRL 49653 as radioligand in scintillation proximity assay (SPA)

Experiment [15] is filed under the species Mus musculus. Kind of experiment: Compound was tested for Antihyperlipidemic activity, activity is expressed as percent increase of body weight.
Experiment [16] deals with T6, Peroxisome proliferator-activated receptor alpha (Mus musculus) (UniProt P23204).
T6 sequence (whole entry): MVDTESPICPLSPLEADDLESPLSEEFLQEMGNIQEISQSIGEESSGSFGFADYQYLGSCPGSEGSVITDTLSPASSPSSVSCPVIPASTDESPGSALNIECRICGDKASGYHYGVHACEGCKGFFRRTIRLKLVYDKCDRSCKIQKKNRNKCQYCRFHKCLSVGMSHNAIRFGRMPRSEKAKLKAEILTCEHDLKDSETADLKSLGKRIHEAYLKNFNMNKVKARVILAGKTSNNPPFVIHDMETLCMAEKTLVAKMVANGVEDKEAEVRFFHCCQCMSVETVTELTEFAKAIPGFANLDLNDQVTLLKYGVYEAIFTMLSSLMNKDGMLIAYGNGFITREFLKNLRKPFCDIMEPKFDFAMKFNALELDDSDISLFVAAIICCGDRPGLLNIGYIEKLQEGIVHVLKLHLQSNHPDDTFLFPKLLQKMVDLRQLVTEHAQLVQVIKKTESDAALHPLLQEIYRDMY
Kind of experiment: Compound was tested functionally in vitro for inducing 50% of the maximum alkaline phosphatase activity (Transactivation) against murine Peroxisome proliferator activated receptor alpha using transfection assay in CV-1 cells; IA = Inactive at 10e-4 M. The experiment is classed as functional, cell-based.

The target in experiment [17] is T7, Peroxisome proliferator-activated receptor alpha (Homo sapiens, UniProt Q07869).
T7 sequence (Q07869 whole entry): T4 sequence (whole entry)
Kind of experiment: Compound was tested functionally in vitro for inducing 50% of the maximum alkaline phosphatase activity (Transactivation) against human Peroxisome proliferator activated receptor alpha using transfection assay in CV-1 cells. The experiment is classed as functional, cell-based.

Experiment [18] addresses T8, Peroxisome proliferator-activated receptor gamma (Mus musculus, UniProt P37238).
T8 sequence (P37238 whole entry): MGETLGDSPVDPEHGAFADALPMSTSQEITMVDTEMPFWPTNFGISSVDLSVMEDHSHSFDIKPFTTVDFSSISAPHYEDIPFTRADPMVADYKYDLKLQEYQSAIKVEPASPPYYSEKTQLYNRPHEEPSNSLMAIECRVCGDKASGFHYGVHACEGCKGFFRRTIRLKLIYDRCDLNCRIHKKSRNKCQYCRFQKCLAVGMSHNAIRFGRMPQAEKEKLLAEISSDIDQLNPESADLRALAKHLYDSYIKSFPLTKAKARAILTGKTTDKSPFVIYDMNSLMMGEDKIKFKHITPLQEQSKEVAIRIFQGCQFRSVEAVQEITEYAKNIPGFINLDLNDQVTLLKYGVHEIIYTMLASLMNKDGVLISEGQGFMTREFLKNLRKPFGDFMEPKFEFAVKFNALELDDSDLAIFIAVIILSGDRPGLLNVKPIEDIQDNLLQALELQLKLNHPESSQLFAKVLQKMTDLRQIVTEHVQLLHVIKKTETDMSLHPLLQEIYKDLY
Nature of the experiment: Compound was tested functionally in vitro for inducing 50% of the maximum alkaline phosphatase activity (Transactivation) against murine Peroxisome proliferator activated receptor gamma using transfection assay in CV-1 cells. The experiment is classed as functional, cell-based.

For experiment [19], the species on record is Rattus norvegicus. Nature of the experiment: Compound was tested for Antihyperlipidemic activity in Zucker Diabetic fatty rats, activity is expressed as percent reduction of NEFAs. The format is functional.
Experiment [20] concerns Rattus norvegicus. Kind of experiment: Compound was tested in vivo for Antihyperglycemic activity in Zucker Diabetic fatty rats, activity is expressed as percent reduction of plasma glucose. The format is functional.
The target in experiment [21] is T4, Peroxisome proliferator-activated receptor alpha (Homo sapiens). The following applies: CV-1; 10e-4 M.
For experiment [22], the system named is Rattus norvegicus. Kind of experiment: Compound was tested in vivo for Antihyperglycemic activity in Zucker Diabetic fatty rats, activity is expressed as percent reduction of HbA1C. The experiment is classed as functional.
Experiment [23] is filed under the species Rattus norvegicus. Kind of experiment: Compound was tested for Antihyperlipidemic activity in Zucker Diabetic fatty rats, activity is expressed as percent reduction of Triglycerides. The format is functional.

Each structure is given as a SMILES string. Calls of active or inactive are those of the source. The calls are words filed in the database; no cut-off is given here.

With `Cc1c(C)c2c(c(C)c1O)CCC(C)(COc1ccc(CC3SC(=O)NC3=O)cc1)O2` (stereo unspecified) [TROGLITAZONE], the Reduction in the experiment filed under Rattus norvegicus [1] stood at 81%; in the experiment on Rattus norvegicus [2] it was 29%; in the experiment with Rattus norvegicus [3], 61%; in the experiment listed under Rattus norvegicus [4] it was 87%.

`CN(CCOc1ccc(C[C@H](Nc2ccccc2C(=O)c2ccccc2)C(=O)O)cc1)c1nc2ccccc2o1`: the results for the Reduction in the experiment listed under Mus musculus [5], in the experiment listed under Mus musculus [8] and with Mus musculus [9] were 38%, 36% and 41%, respectively. The compound further showed a Ki in experiment [6] of 1.48 nM. The “Log EC50” value in experiment [7] is listed as -8.58. Besides, the “Log EC50” value in [10], in experiment [11] and in experiment [16] was “inactive” each time. Further, the EC50 in [12] is 2.63 nM; in experiment [17] it was 6460 nM; in experiment [18], 4.68 nM. Besides, in [13], the pKi turned out to be 5.92. Moreover, in [14], the Log Ki was determined as 8.83 µM. Further, the “body weight increase %” value in the experiment filed under Mus musculus [15] is reported as 9%.

For `CN(CCOc1ccc(C[C@H](Nc2ccccc2C(=O)c2ccccc2)C(=O)O)cc1)c1ccccn1` (stereo in doubt; 18), the Reduction in the experiment filed under Rattus norvegicus [19] was determined as 73%; in the experiment listed under Mus musculus [5], 46%; in the experiment on Rattus norvegicus [20], 68%; in the experiment listed under Mus musculus [8], 61%; in the experiment on Mus musculus [9] it was 58%; with Rattus norvegicus [22], 37%. This compound returned a Reduction in the experiment listed under Rattus norvegicus [23] of 87%. In addition, the “Log EC50” value in experiment [21], in experiment [10], in experiment [11] and in experiment [16] was “inactive” throughout. For the same compound, the “body weight increase %” value in the experiment filed under Mus musculus [15] is given as 6%. This compound also had an EC50 in experiment [18] of 13.2 nM.
